Data published in patent US5789382A, “Retro-peptide fibroblast growth factor which blocks FGF receptor” (Georgetown University, priority 1993, dated 1998).
Ends that are not written are not given here.

Tests used:
human SW-13 cells = test: growth assay with human SW-13 cells (FIG. 2, FIG. 4); assay type: cell-based; details: for inhibition of SW-13 cell growth: amounts added as high as 1,000 μg/ml
Description: FIG. 2 illustrates the results of a growth assay conducted with both a peptide of the present invention (retro-peptide) and the antero-peptide sequence thereof.
FIG. 2 illustrates that both the antero-peptide and the retro-peptide are inhibitory in a growth assay with human SW-13 cells.
FIG. 4 illustrates the difference in effect on SW-13 cell growth between a 10-mer peptide sequence of the formula (SEQ ID NO:6): […]
As may be seen from FIG. 4, the 15-mer sequence has an inhibitive effect on SW-13 cell growth with increasing amount added in μg/ml. This effect becomes almost completely inhibiting in amounts added of about 100 μg/ml and greater.

human melanoma = test: growth inhibition of human melanoma; assay type: cell-based; details: same concentration as in the SW-13 assay
human rhabdomyosarcoma [1] = test: growth inhibition of human rhabdomyosarcoma (in vitro); assay type: cell-based; details: same concentration as in the SW-13 assay
normal human cells = test: FGF-stimulated growth of normal human cells; assay type: cell-based
SW-13 cells = test: FGF-stimulated colony formation of SW-13 cells (FIG. 3); assay type: cell-based, human
Description: FIG. 3 illustrates the competitive mechanism of FGF-dependent growth inhibition by a retro-peptide of the present invention.
(§1) FIG. 3 illustrates the competitive mechanism of FGF-dependent growth inhibition by the retro-peptide of the present invention. […] This clearly establishes the specificity of the FGF-receptor inhibition by the present retro-peptide.
In FIG. 3, "Co" refers to a control, while "A" refers to the antero-peptideand "R" refers to the retro-peptide.

breast cancer cells = test: growth of cell lines growing independently from FGF; assay type: cell-based; details: such as breast cancer cells
Description: as §1

human rhabdomyosarcoma [2] = test: human rhabdomyosarcoma xenograft in athymic nude mice (FIG. 6); assay type: in vivo
Protocol: Animal studies with human rhabdomyosarcoma growing in athymic nude mice were carried out with the 15 mer peptide. Tumors were allowed to grow subcutaneously and peptide (25 mg/kg of body weight) dissolved in saline was injected for eight days daily intraperitoneally. After three weeks the tumor size in a control group treated only with saline solution was 26.6±6.8 mm^2. The tumor size in the peptide-treated animals was 5.4±1.6 mm^2. […] This is illustrated in FIG. 6.
(§2) Human tumor cells (1 million per mouse) were inoculated in 0.1 ml of saline solution into a mammary fat pad of each mouse. Each group of treatment consisted of 10 animals. One day after the inoculation of tumor cells the animals were treated with a single daily intraperitoneal injection of saline solution (control group) or with the 15-mer retropeptide dissolved in saline solution at a dose of 25 mg per kg body weight (peptide group) or 25 mg per kg body weight of pentosanpolysulfate (pentosan polysulfate group). The treatment with peptide was continued for 8 days due to a currently still limited supply of the peptide. The pentosanpolysulfate treatment was continued throughout the whole observation period.
(§3) The mean ± standard error tumor size is 26.6±6.8 mm^2 (control group) and […] (peptide group). This difference is highly significant (p<0.003) as tested by student's t-test.

[3] = tolerability in tumor-bearing mice; assay type: in vivo, athymic nude mice; details: 25 mg/kg daily i.p. for 8 days
Protocol: as §2, §3

water solubility = assay type: physicochemical
Protocol: The present retro-peptide is water-soluble and is administered by any route, especially intravenously, subcutaneously, intraperitonially, intramuscularly, orally and rectally. The peptide may be conveniently administered in dextrose 5% saline or in saline solution.

Substance: NH2 --YRSRK--YSSWY-CO2 H [10-mer sequence, reference compound]
- inhibition of SW-13 cell growth (human SW-13 cells; FIG. 4): essentially no such inhibition
- inhibition of SW-13 cell growth (human SW-13 cells; FIG. 4, listed as 10-mer): loss of activity

Substance: NH2 --YRSRK--YSSWY-VALKR--CO2 H [15-mer sequence]
- amount added at which inhibition of SW-13 cell growth becomes almost complete (human SW-13 cells; FIG. 4, about 100 μg/ml and greater): about 100 μg/ml

Substance: RKLAVYWSSYKRSRY [retro-peptide, NH2 --RKLAV--YWSSY--KRSRY--COOH]
- inhibition in growth assay with human SW-13 cells (human SW-13 cells; FIG. 2): inhibitory
- potency in SW-13 growth assay relative to the antero-peptide (human SW-13 cells; FIG. 2, retro-peptide versus antero-peptide): much more potent
- effectiveness against human melanoma (human melanoma): effective at the same concentration
- effectiveness against human rhabdomyosarcoma (human rhabdomyosarcoma [1]): effective at the same concentration
- FGF-stimulated growth of normal human cells (normal human cells): blocks FGF-stimulated growth
- dose-response curve of FGF-stimulated colony formation of SW-13 cells (SW-13 cells; competitive mechanism): shifted to the right without affecting the maximum achieved
- inhibition of cell lines growing independently from FGF (breast cancer cells): neither of the antero-peptide nor retro-peptide inhibit
- mean ± standard error tumor size (human rhabdomyosarcoma [2]; after 24 days of observation, 25 mg/kg daily i.p. for 8 days, saline control 26.6±6.8, p<0.003): 5.0±1.6 mm^2
- tumor size (human rhabdomyosarcoma [2]; after three weeks, 25 mg/kg daily i.p. for eight days, saline control 26.6±6.8, p<0.003): 5.4±1.6 mm^2
- body weight and signs of illness [3]: did not lose weight or show any other signs of major illness
- tolerability [3]: tolerated the peptide well
- solubility in water (water solubility): water-soluble

Substance: YRSRKYSSWYVALKR [antero-peptide, NH2 --YRSRK--YSSWY--VALKR--COOH, reference compound]
- inhibition in growth assay with human SW-13 cells (human SW-13 cells; FIG. 2): inhibitory
- potency in FGF-stimulated SW-13 colony formation relative to the retro-peptide (SW-13 cells; antero-peptide versus retro-peptide): significantly less potent
- inhibition of cell lines growing independently from FGF (breast cancer cells): neither of the antero-peptide nor retro-peptide inhibit

Substance: pentosanpolysulfate [reference compound]
- action on tumor size (human rhabdomyosarcoma [2]; 25 mg/kg daily i.p. throughout the observation period, p<0.05): significant
